Our source for the EC50 and IC50 values is ChEMBL document CHEMBL1123536, “Studies on Ca2+ channel antagonists. 5-[(3,4-Dimethoxyphenethyl)methylamino]-2-(3,4-dimethoxyphenyl)-2- isopropylpentyl isothiocyanate, a chemoaffinity ligand derived from verapamil” (J Med Chem, 1986).

Assay [1] is filed under the species Rattus norvegicus. In words: Compound was evaluated for the concentration dependent negative ionotropic effect in rat right myocardial ventricular strips. The class given is functional. Conditions: Cardiac ventricle.
For assay [2], the species on record is Rattus norvegicus. The assay is described as follows: Compound was evaluated for the displacement of [3H]gallopamil from specific binding sites on rat myocardial membrane particulates. To be noted: Myocardium. A general note: Loss of bound radioactivity is the signal in a displacement assay; it reports binding, not function.

For orientation: EC50 means the midpoint of the concentration-response curve. Low values mean a more potent agent, high ones a less potent agent. As a reminder, the IC50 is the concentration needed to halve the response being measured. A high value points to weaker potency in that assay. `COc1ccc(CCN(C)CCCC(CN=C=S)(c2ccc(OC)c(OC)c2)C(C)C)cc1OC` (stereo unspecified) gave a concentration for a half-maximal effect (EC50) in assay [1] of 4560 nM. The compound further came in with an IC50 in assay [2] of 342 nM.

With `COc1ccc(CCN(C)CCCC(C#N)(c2cc(OC)c(OC)c(OC)c2)C(C)C)cc1OC` (stereo unspecified) [GALLOPAMIL], a half-maximal response in assay [1] (EC50) required 1950 nM. The same compound came in with an IC50 in assay [2] of 16 nM.

With `COc1ccc(CCN(C)CCCC(C#N)(c2ccc(OC)c(OC)c2)C(C)C)cc1OC` (stereo unspecified) [VERAPAMIL], in assay [1], the EC50 is 2510 nM. Besides, the IC50 in assay [2] was determined as 362 nM.
